From PubChem BioAssay AID1259407 (Chemical Carcinogenesis Research Information System (CCRIS), 2018)
Active and inactive are the calls of the source. No rule for the calls is given here.

Tested on: CCRIS mutagenicity, Ames/micronucleus/aberration tests
Experiment: CCRIS mutagenicity studies

Measured: mutagenic call

CC(=O)N[C@@H](CS/C(F)=C(\F)C(F)(F)F)C(=O)O
inactive: Test System: AMES SALMONELLA TYPHIMURIUM, Strain/Indicator: TA100, Metabolic Activation: RAT, KIDNEY, S-9, AROCLOR 1254, Method: STANDARD PLATE inactive; negative

Cc1oc(=O)oc1CN1CCN(c2cc3c(cc2F)c(=O)c(C(=O)O)c2n3C(C)S2)CC1 (stereo unspecified)
inactive: Test System: AMES SALMONELLA TYPHIMURIUM, Strain/Indicator: TA98, Metabolic Activation: NONE, Method: PREINCUBATION inactive; negative | Test System: AMES SALMONELLA TYPHIMURIUM, Strain/Indicator: TA98, Metabolic Activation: RAT, LIVER, S-9, PHENOBARBITAL AND 5,6-BENZOFLAVONE, Method: PREINCUBATION inactive; negative | Test System: AMES SALMONELLA TYPHIMURIUM, Strain/Indicator: TA100, Metabolic Activation: NONE, Method: PREINCUBATION inactive; negative | Test System: AMES SALMONELLA TYPHIMURIUM, Strain/Indicator: TA100, Metabolic Activation: RAT, LIVER, S-9, PHENOBARBITAL AND 5,6-BENZOFLAVONE, Method: PREINCUBATION inactive; negative | Test System: AMES SALMONELLA TYPHIMURIUM, Strain/Indicator: TA1535, Metabolic Activation: NONE, Method: PREINCUBATION inactive; negative | Test System: AMES SALMONELLA TYPHIMURIUM, Strain/Indicator: TA1535, Metabolic Activation: RAT, LIVER, S-9, PHENOBARBITAL AND 5,6-BENZOFLAVONE, Method: PREINCUBATION inactive; negative | Test System: AMES SALMONELLA TYPHIMURIUM, Strain/Indicator: TA1537, Metabolic Activation: NONE, Method: PREINCUBATION inactive; negative | Test System: AMES SALMONELLA TYPHIMURIUM, Strain/Indicator: TA1537, Metabolic Activation: RAT, LIVER, S-9, PHENOBARBITAL AND 5,6-BENZOFLAVONE, Method: PREINCUBATION inactive; negative | Test System: E. COLI, Strain/Indicator: WP2 UVRA, Metabolic Activation: NONE, Method: PREINCUBATION inactive; negative | Test System: E. COLI, Strain/Indicator: WP2 UVRA, Metabolic Activation: RAT, LIVER, S-9, PHENOBARBITAL AND 5,6-BENZOFLAVONE, Method: PREINCUBATION inactive; negative

Nc1ccn([C@H]2CC[C@@H](CO)O2)c(=O)n1
inactive: Test System: AMES SALMONELLA TYPHIMURIUM, Strain/Indicator: TA98, Metabolic Activation: HAMSTER, LIVER, S-9, AROCLOR 1254, Method: STANDARD PLATE inactive; negative | Test System: AMES SALMONELLA TYPHIMURIUM, Strain/Indicator: TA98, Metabolic Activation: NONE, Method: STANDARD PLATE inactive; negative | Test System: AMES SALMONELLA TYPHIMURIUM, Strain/Indicator: TA98, Metabolic Activation: RAT, LIVER, S-9, AROCLOR 1254, Method: STANDARD PLATE inactive; negative | Test System: AMES SALMONELLA TYPHIMURIUM, Strain/Indicator: TA100, Metabolic Activation: HAMSTER, LIVER, S-9, AROCLOR 1254, Method: STANDARD PLATE inactive; negative | Test System: AMES SALMONELLA TYPHIMURIUM, Strain/Indicator: TA100, Metabolic Activation: NONE, Method: STANDARD PLATE inactive; negative | Test System: AMES SALMONELLA TYPHIMURIUM, Strain/Indicator: TA100, Metabolic Activation: RAT, LIVER, S-9, AROCLOR 1254, Method: STANDARD PLATE inactive; negative | Test System: MOUSE LYMPHOMA, Strain/Indicator: L5178Y (TK+/TK-), Metabolic Activation: NONE, Method: MICROWELL inactive; negative | Test System: MOUSE LYMPHOMA, Strain/Indicator: L5178Y (TK+/TK-), Metabolic Activation: NONE, Method: SUSPENSION/PLATE inactive; negative. reevaluation of results: negative | Test System: MOUSE LYMPHOMA, Strain/Indicator: L5178Y (TK+/TK-), Metabolic Activation: RAT, LIVER, S-9, AROCLOR 1254, Method: SUSPENSION/PLATE inactive; negative. reevaluation of results: negative | Test System: MOUSE LYMPHOMA, Strain/Indicator: L5178Y (TK+/TK-), Metabolic Activation: S-9, Method: MICROWELL inactive; negative
